From patent US11753446B2, “Beta-hairpin peptidomimetics” (POLYPHOR AG, priority 2014, dated 2023)
Where a SMILES comes first, the peptide text is derived from it.

Tests used:
[1] = system: Acinetobacter baumannii DSM 30008; type: cell-based; settings: DSM 30008
Procedure, shortened: (§1)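 Peptide MICs were determined by NCCLS broth microdilution in cation-adjusted Mueller-Hinton II broth. Inoculum was about 10^6 CFU/mL, matched to 0.5 McFarland, with peptides in two-fold serial dilutions. The broth contained Polysorbate 80 at 0.002% final concentration.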

[2] = system: Escherichia coli ATCC 25922; type: cell-based; settings: ATCC 25922
Procedure, shortened: as §1

[3] = system: Klebsiella pneumoniae ATCC 13883; type: cell-based; settings: ATCC 13883
Procedure, shortened: as §1

[4] = system: human red blood cells (hRBC); assay: Hemolysis: hemolytic activity at 100 μg/mL, 1 h at 37° C.; settings: red cells of human, 1 h, 100
Procedure, shortened: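 Peptides at 100 μg/mL incubated with washed 20% (v/v) human erythrocytes (~0.9×10^9 cells/mL) for 1 h at 37 °C with shaking. Released hemoglobin read at OD 540 nm in supernatant; 0% and 100% lysis from PBS/0.001% acetic acid and 2.5% Triton X-100.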

CC(C)C[C@@H]1NC(=O)[C@H](CCCNC(=N)N)NC(=O)[C@@H](CCN)NC(=O)[C@H](C(C)C)NC(=O)[C@@H]2CSSC[C@H](NC1=O)C(=O)N[C@@H](C(C)C)C(=O)N[C@@H](CC(N)=O)C(=O)N[C@@H](CCCN)C(=O)N[C@H](CCN)C(=O)N[C@@H](CCN)C(=O)N[C@@H](Cc1c[nH]c3ccccc13)C(=O)N[C@@H](CO)C(=O)N[C@@H](Cc1ccc(O)cc1)C(=O)N2 [Example 18, cyclo(-Leu-Cys-Val-Asn-Orn-^DDab-Dab-Trp-Ser-Tyr-Cys-Val-^DDab-Arg-)] (HELM PEPTIDE1{C.V.N.[Orn].[NCC[C@@H](N[*:1])C(=O)[*:2]].[Dab].W.S.Y.C.V.[NCC[C@@H](N[*:1])C(=O)[*:2]].R.L}$PEPTIDE1,PEPTIDE1,1:R3-10:R3|PEPTIDE1,PEPTIDE1,1:R1-14:R2$$$V2.0)
Acinetobacter baumannii DSM 30008 MIC [1]: 0.25 µg/mL
Escherichia coli ATCC 25922 MIC [2]: 0.5 µg/mL
Klebsiella pneumoniae ATCC 13883 MIC [3]: 0.5 µg/mL
Hemolysis at 100 μg/mL [4]: 8%

CC(C)C[C@@H]1NC(=O)[C@H](CCCNC(=N)N)NC(=O)[C@@H](CCN)NC(=O)[C@H]([C@@H](C)O)NC(=O)[C@@H]2CSSC[C@H](NC1=O)C(=O)N[C@@H](Cc1ccc(O)cc1)C(=O)N[C@@H](CC(N)=O)C(=O)N[C@@H](CCCN)C(=O)N[C@H](CCN)C(=O)N[C@@H](CCN)C(=O)N[C@@H](Cc1c[nH]c3ccccc13)C(=O)N[C@@H](CO)C(=O)N[C@@H](Cc1ccc(O)cc1)C(=O)N2 [Example 74, cyclo(-Leu-Cys-Tyr-Asn-Orn-^DDab-Dab-Trp-Ser-Tyr-Cys-Thr-^DDab-Arg-)] (HELM PEPTIDE1{C.T.[NCC[C@@H](N[*:1])C(=O)[*:2]].R.L.C.Y.N.[Orn].[NCC[C@@H](N[*:1])C(=O)[*:2]].[Dab].W.S.Y}$PEPTIDE1,PEPTIDE1,1:R3-6:R3|PEPTIDE1,PEPTIDE1,1:R1-14:R2$$$V2.0)
Acinetobacter baumannii DSM 30008 MIC [1]: 1.5 µg/mL
Escherichia coli ATCC 25922 MIC [2]: 4 µg/mL
Klebsiella pneumoniae ATCC 13883 MIC [3]: 1 µg/mL
Hemolysis at 100 μg/mL [4]: 1%
